Experimental data taken from patent publication US7300784B2 (priority 2001, dated 2007).
Values joined by “and” are separate entries in the source; they are usually repeats but may differ in a detail not shown here. Identical values can stand only once. Like-named read-outs stand apart in the source and are kept apart here.

Key:
[1] = system: nitrile hydratase of Rhodococcus sp. Cr4; type: biochemical
Rhodococcus sp. Cr4 = type: cell-based
[2] = system: Rhodococcus rhodochrous ATCC 332878; type: cell-based

Chain of nitrile hydratase of Rhodococcus sp. Cr4 (as listed by the source): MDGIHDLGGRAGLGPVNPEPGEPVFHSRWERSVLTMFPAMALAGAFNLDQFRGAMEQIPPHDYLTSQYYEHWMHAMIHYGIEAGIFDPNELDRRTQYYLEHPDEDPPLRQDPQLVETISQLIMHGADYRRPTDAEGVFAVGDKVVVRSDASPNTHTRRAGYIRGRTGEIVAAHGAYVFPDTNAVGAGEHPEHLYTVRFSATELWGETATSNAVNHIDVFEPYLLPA
Chain of nitrile hydratase of Rhodococcus sp. Cr4 (as listed by the source): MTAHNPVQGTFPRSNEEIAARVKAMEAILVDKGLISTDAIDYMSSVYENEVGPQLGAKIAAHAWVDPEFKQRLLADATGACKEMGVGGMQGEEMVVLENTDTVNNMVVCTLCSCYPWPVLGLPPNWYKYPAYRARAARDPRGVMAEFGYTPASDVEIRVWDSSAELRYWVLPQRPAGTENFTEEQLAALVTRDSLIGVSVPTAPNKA

CoCl2
Relative activity (%) [1]: 154%
effect on enzyme activity (words) [1]: enhanced
enhancement of the enzymatic activity [1]: 1.5 times
Relative activity (%) ([1]; 0 mM = 100): 136% and 127% and 129% and 150% and 153% and 143%
Relative activity (%) (Rhodococcus sp. Cr4): 137%
effect on nitrile hydratase activity in resting cell reaction (Rhodococcus sp. Cr4): enhanced
Relative activity (%) [2]: 123%
